Species on record: Mus musculus
Assay: Effective concentration required to protect mouse embryo cortical neurons against a DNA-damaging agent
Type: functional
Details: not given

Structure (SMILES) | EC50
O=[N+]([O-])c1ccc(-c2cn3c4c(sc3n2)CCCC4)cc1 | ~30 nM
Br.COc1ccc(C(=O)C(C#N)n2c3c(sc2=N)CCCC3)cc1 (stereo unspecified) | ~30 nM

Tested on: not listed separately
Assay: Half reaction time was determined
Type: ADME
Details: mouse

Structure (SMILES) | half-life
Br.COc1ccc(C(=O)C(C#N)n2c3c(sc2=N)CCCC3)cc1 (stereo unspecified) | 12 h
Br.N=c1sc2c(n1CC(=O)c1ccc([N+](=O)[O-])cc1)CCCC2 | 6 h
Br.Cc1ccc(C(=O)Cn2c3c(sc2=N)CCCC3)cc1 | 4 h
Br.N=c1sc2c(n1CC(=O)c1ccc([N+](=O)[O-])cc1)CC1CCCCC1C2 (stereo unspecified) | 5 h

Source: ChEMBL document CHEMBL1141906, “Novel cyclized Pifithrin-alpha p53 inactivators: synthesis and biological studies” (Bioorg Med Chem Lett, 2005)
